For assay [1], the target named is Beta-2 adrenergic receptor (Homo sapiens, UniProt P07550). Briefly: beta2AR agonists driving receptor internalization, dose response, cell-based, FAP fluorogen, flow cytometry, cherry pick 1 (AID 588763). The assay is classed as functional. Background: Flow cytometry measures light scatter and fluorescence of single cells or particles in a stream.
In assay [2] the test system is Streptococcus sp. 'group A'. The assay is described as follows: growth inhibition of control SK(-) GAS strain, dose response, counter-screen for streptokinase expression inhibitor project, luminescence, kanamycin, BacTiterGlo, confirmation (AID 1900). The format is functional, organism-based. (The purpose of a counterscreen is to sort out artefacts and off-target activity.)

The target in assay [3] is T1, Replicative DNA helicase DnaB (Mycobacterium tuberculosis, UniProt P9WMR3).
T1 sequence (P9WMR3 whole entry): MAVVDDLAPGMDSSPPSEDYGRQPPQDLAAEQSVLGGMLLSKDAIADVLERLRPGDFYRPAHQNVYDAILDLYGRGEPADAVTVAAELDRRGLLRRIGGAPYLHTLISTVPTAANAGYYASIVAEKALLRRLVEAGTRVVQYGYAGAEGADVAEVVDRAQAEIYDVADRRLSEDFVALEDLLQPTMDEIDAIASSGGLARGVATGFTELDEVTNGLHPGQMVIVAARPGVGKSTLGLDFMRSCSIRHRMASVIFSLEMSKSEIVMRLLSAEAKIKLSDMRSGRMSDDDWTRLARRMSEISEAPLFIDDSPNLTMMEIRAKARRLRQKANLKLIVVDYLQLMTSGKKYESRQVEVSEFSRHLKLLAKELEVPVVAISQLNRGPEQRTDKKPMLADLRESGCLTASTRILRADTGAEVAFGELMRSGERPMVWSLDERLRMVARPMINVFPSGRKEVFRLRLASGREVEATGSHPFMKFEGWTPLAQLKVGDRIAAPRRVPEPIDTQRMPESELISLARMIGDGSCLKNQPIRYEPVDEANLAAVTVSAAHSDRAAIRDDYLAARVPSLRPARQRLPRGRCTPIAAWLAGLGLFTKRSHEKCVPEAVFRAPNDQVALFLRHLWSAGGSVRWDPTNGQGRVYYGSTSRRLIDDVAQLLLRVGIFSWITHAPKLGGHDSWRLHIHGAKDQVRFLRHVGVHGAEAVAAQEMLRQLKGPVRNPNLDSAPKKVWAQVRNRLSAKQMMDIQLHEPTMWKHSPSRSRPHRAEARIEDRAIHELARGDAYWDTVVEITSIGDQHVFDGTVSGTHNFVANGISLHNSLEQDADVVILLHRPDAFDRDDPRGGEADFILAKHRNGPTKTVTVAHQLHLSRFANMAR
The assay is described as follows: DnaB intein splicing inhibitors, dose response, biochemical, cell-free fluorescence (AID 449749). The assay is classed as functional.

In assay [4] the target is T2, Mitochondrial peptide methionine sulfoxide reductase (Bos taurus, UniProt P54149).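 Note: absorbance read-out, biochemical high-throughput dose-response screen for MsrA inhibitors, confirmatory; recombinant bovine MsrA coupled to E. coli TrxB with NADPH and selenocystamine; potency is for inhibitors of MsrA activity on DMSO substrate.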
T2 sequence (P54149 whole entry): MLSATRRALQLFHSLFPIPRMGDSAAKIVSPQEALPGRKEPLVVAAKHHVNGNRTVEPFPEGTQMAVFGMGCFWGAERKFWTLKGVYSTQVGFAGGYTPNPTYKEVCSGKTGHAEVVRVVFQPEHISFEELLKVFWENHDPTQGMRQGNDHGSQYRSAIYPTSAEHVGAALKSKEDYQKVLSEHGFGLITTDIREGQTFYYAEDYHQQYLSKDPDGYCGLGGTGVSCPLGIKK
The format is functional.

The target in assay [5] is Apoptotic protease-activating factor 1 (Homo sapiens, UniProt O14727). The format is functional.
Apoptotic protease-activating factor 1, sequence (O14727 whole entry): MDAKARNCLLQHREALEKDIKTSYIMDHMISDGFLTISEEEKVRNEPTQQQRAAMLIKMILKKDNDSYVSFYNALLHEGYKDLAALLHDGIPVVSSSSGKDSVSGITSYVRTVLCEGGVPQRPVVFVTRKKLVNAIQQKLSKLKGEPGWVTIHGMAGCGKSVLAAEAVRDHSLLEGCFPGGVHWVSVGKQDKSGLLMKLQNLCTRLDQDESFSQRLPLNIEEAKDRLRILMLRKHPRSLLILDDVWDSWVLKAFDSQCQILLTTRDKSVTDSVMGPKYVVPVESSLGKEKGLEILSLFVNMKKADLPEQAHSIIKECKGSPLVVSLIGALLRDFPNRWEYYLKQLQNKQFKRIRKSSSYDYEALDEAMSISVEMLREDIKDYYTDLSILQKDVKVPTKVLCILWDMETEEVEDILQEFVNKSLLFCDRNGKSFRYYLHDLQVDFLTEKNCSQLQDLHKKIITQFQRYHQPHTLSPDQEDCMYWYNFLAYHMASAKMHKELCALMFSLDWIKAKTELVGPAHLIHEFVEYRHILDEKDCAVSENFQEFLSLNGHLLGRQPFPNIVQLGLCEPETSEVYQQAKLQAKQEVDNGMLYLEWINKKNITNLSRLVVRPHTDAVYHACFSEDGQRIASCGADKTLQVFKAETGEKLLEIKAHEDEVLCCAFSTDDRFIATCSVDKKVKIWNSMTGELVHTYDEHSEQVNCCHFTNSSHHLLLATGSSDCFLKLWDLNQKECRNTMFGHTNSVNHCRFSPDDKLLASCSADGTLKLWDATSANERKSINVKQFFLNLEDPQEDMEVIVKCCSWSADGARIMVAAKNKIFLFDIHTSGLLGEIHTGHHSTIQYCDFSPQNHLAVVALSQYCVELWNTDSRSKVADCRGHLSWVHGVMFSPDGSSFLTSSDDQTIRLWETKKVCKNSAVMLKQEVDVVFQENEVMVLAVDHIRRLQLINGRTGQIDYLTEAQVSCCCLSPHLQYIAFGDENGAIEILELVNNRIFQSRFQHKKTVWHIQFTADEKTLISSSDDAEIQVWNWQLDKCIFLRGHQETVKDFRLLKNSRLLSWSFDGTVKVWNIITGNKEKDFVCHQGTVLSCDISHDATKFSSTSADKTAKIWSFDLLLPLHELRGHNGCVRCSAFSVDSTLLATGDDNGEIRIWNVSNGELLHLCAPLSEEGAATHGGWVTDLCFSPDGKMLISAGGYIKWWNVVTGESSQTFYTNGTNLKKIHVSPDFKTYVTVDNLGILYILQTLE
In a further assay the test system is Streptococcus. Briefly: Group A Streptococcus viability loss, dose response, counter-screen for streptokinase expression inhibitor project, luminescence, BacTiterGlo (AID 1915).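 Note: potency for reduction of bacterial viability or growth.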 The format is functional, organism-based.
In a further assay the target is T3, Protein RecA (Mycobacterium tuberculosis, UniProt P9WHJ3).
T3 sequence (P9WHJ3 whole entry): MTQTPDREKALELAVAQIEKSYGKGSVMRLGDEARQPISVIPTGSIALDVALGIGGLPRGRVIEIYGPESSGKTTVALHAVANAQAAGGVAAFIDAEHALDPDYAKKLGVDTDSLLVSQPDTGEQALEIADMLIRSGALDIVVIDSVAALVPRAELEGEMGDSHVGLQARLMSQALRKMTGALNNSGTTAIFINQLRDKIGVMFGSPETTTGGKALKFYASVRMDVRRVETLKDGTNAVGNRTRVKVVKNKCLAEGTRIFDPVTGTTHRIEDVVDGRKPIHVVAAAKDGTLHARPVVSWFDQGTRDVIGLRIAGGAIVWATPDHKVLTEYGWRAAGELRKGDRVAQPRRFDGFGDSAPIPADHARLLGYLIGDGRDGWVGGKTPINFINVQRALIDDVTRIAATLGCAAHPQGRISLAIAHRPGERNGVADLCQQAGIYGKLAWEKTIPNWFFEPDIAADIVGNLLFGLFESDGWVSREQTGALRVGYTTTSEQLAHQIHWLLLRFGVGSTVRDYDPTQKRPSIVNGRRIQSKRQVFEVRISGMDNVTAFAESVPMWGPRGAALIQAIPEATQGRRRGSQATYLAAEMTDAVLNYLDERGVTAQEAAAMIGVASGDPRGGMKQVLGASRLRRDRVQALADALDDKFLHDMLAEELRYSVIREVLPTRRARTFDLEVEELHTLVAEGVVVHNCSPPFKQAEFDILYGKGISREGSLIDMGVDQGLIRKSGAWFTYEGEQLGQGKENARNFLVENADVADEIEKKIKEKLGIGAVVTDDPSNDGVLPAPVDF
The assay is described as follows: Fluorescence Cell-Free Homogeneous Dose Retest to Identify Inhibitors of RecA-Intein Splicing Activity. [Related pubchem assays (depositor defined):AID2097, AID2223, AID489010, AID492950]. The format is functional.

Another assay relates to Vero. The assay is described as follows: Vero cell cytotoxicity, cytotoxicity control for flavivirus capping enzyme inhibitors (AID 588742). The format is functional. The note with it: Chlorocebus sabaeus.
The target of a further assay is T4, Streptokinase A (Streptococcus pyogenes serotype M1, UniProt P10520).
T4 sequence (P10520 whole entry): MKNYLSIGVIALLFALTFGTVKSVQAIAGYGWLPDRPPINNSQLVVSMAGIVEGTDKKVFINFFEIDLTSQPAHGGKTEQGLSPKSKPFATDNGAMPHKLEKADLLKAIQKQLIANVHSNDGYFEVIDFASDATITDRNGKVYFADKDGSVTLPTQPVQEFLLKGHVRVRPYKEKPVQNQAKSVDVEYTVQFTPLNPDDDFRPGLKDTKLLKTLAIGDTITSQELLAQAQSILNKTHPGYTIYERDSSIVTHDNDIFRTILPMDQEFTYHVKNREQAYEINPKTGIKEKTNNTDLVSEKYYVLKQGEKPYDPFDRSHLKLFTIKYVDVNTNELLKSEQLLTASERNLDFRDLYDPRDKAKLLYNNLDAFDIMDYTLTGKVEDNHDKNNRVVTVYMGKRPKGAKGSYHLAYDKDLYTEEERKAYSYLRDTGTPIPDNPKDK
The assay is described as follows: S. pyogenes streptokinase expression inhibitors, potency, dose response, plasminogen activation absorbance, OD405 (AID 1914).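 Note: secreted streptokinase activity via plasminogen activation per viability signal from cell pellet.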 The assay is classed as functional, Streptococcus pyogenes M1 GAS.

For assay [6], the target named is T5, Nuclear receptor subfamily 0 group B member 1 (Homo sapiens, UniProt P51843).
T5 sequence (P51843 whole entry): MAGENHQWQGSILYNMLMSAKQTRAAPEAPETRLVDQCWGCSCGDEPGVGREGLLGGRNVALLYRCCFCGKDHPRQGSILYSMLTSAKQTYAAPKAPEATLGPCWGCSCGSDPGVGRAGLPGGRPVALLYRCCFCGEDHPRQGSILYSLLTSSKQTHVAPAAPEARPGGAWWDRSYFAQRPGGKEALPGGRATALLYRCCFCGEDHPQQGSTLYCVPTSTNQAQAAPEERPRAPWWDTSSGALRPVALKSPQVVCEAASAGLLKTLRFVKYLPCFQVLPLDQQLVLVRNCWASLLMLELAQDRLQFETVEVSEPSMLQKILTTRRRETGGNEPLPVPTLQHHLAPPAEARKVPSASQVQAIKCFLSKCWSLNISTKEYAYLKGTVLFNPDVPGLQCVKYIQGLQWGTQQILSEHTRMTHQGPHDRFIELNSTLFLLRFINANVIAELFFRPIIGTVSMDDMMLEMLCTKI
Briefly: Luminescence-based cell-based high throughput dose response assay for inhibitors of the orphan nuclear receptor subfamily 0, group B, member 1 (DAX1; NR0B1). [Related pubchem assays (depositor defined):AID504766, AID504790]. The format is functional.

The subject of another assay is HEK293. The assay is described as follows: cells. The format is functional, cell-based. The note with it: Homo sapiens.

The values that follow come from ChEMBL document CHEMBL1201862, “PubChem BioAssay data set” (2004).

Active and inactive are the calls of the source.

In general, EC50 refers to the midpoint of the concentration-response curve. In general, AC50 refers to the midpoint of the concentration-response curve, whichever way the signal moves. Broadly, the IC50 is the point on the concentration scale where inhibition reaches its midpoint. In general, CC50 refers to the concentration giving 50% cytotoxicity.

Beta-2 adrenergic receptor, sequence (P07550 whole entry): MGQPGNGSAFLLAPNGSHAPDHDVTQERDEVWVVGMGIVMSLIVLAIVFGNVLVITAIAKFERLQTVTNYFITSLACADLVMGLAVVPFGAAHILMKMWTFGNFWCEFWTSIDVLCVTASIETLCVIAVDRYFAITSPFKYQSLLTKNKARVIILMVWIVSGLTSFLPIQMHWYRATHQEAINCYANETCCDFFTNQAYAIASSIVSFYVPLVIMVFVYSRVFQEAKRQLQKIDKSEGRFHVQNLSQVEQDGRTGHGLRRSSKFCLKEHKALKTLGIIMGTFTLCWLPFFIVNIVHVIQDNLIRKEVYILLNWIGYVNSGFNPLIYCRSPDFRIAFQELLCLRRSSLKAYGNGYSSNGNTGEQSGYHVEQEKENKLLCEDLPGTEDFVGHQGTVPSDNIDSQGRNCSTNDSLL

`Cn1c(CNc2nc(-c3ccccc3)cs2)nnc1SCC(=O)N1CCc2ccccc21`: the 50% effective concentration (EC50) in assay [1] was 0.666 µM (active).

Consider `Cc1[nH]c2ccccc2c1C(C#N)(C#N)C1C(=O)c2ccccc2C1=O`, for which the EC50 was 8.49 µM (active) in assay [2], > 150 µM (not active) in the assay on Streptococcus, 0.297 µM (active) on Protein RecA and > 150 µM (not active) on Streptokinase A. Moreover, the AC50 in [3] is > 120 µM (inactive). Further, the IC50 in [4] is 12.1 µM (inactive); in assay [5], > 100 µM (inactive). Besides, the CC50 in the assay on Vero was > 40 µM (active).

In the case of `O=C(NC1=NCCS1)c1cccc(Br)c1`, the IC50 (in assay [6]; with HEK293) was > 67.5 µM (inactive) throughout.
